Test results taken from patent US11253524B2 (Gilead Sciences, Inc., priority 2018, dated 2022).

Legend:
[1] = Precipitation of test compound in transporter assay buffer; format: physicochemical; settings: 300 μM, MRP2 assay buffer
[2] = system: cryopreserved hepatocytes; assay: Metabolites of [14C]BIC in cryopreserved hepatocytes, monkey; format: in vitro ADME; settings: Cynomolgus Monkey hepatocytes, 4 hours, [14C]BIC 20 μM
Excerpt: (§1) Metabolic pathways included hydroxylation (3 variants), N-dealkylation, and direct glucuronidation. All human metabolites were also observed in nonclinical species. Using the hepatocyte system where the full range of hepatic metabolic enzymes are represented, it appeared that the metabolism of BIC was extensive in monkey and dog but lower in rat and human.

[3] = system: cryopreserved hepatocytes; assay: Metabolites of [14C]BIC in cryopreserved hepatocytes, human; format: in vitro ADME; settings: 4 hours, [14C]BIC 20 μM
Excerpt: as §1

[4] = In vivo BIC metabolism, plasma profile after oral [14C]BIC, mouse; settings: transgenic mice, 0 to 48 hours post dose, ND = not detected
Excerpt: Metabolic pathways included hydroxylation, oxidative defluorination, direct glucuronidation, and oxidation followed by phase II conjugation. In the monkey, BIC was metabolized through the oxidative pathways to a greater extent compared to rat and human.

[5] = system: cryopreserved hepatocytes; assay: Metabolites of [14C]BIC in cryopreserved hepatocytes, rat; format: in vitro ADME; settings: Wister-Han Rat hepatocytes, 4 hours, [14C]BIC 20 μM
Excerpt: as §1

[6] = Stability of synthetic M15 observed during purification; format: physicochemical
Method: Anomeric bromination of 1 with 33% HBr in acetic acid gave bromide 2 in 70% crystallized yield. Treatment of phenol 3 with bromide 2 in the presence of Ag2CO3 in acetonitrile at 60° C. produced compound 4 in 75% yield after reverse phase chromatography. Deprotection of 4 with triethylamine in methanol/water gave clean conversion to glucuronic acid 5 (M15). The reaction was stopped at 90% conversion since the amount of 3 present in the reaction started to increase. The mixture was purified by reverse phase chromatography with 0.1% TFA in the chromatography solvent. The free acid was isolated after lyophilization, however it contained a significant amount of 3. […] Another batch was purified using the same method as before but the TFA was neutralized with triethylamine before lyophilization. The compound was stable to the conditions but contained a large amount of triethylammonium trifluoroacetate. Not all salt was removed. The material was purified by reverse phase chromatography but without TFA in the solvent. After lyophilization the triethylamine salt of M15 (5) was isolated in high purity and 24% overall yield.

O=C(NCc1c(F)cc(F)c(OS(=O)(=O)O)c1F)c1cn2c(c(O)c1=O)C(=O)N1C(C2)O[C@@H]2CC[C@H]1C2 (stereo partly shown) [Metabolite M20]
Precipitation in assay buffer [1]: Precipitation was observed

O=C(NCc1c(F)cc(F)cc1F)c1cn2c(c(O)c1=O)C(=O)N1[C@H]3CC[C@H](C3)O[C@@H]1C2 [BIC, bictegravir, reference compound]
Fraction of Radiochromatogram (%) [2]: 52.4% | Fraction of Radiochromatogram (%) [3]: 93.9% | % of Total Radioactivity in AUC Pooled Plasma [4]: 95.5% | Fraction of Radiochromatogram (%) [5]: 91.5%

O=C(NCc1c(F)cc(F)cc1F)c1cn2c(c(O[C@@H]3O[C@H](C(=O)O)[C@@H](O)[C@H](O)[C@H]3O)c1=O)C(=O)N1[C@H]3CC[C@H](C3)O[C@@H]1C2 [Metabolite M15]
Stability of the free acid ([6]; free acid, neutral or acidic conditions): unstable in either neutral or acidic conditions | Stability of the triethylamine salt ([6]; triethylamine salt): appeared to be stable
